{"source": "patent US20140178305A1", "about": "“IDENTIFICATION AND USE OF ANXIOLYTIC COMPOUNDS” (CALIFORNIA INSTITUTE OF TECHNOLOGY, priority 2012, published 2014)", "key": {"[1]": {"tested_on": "MRGPRD+ neurons (hM3DREADD)", "experiment": "Conditioned place aversion (CPA) assay with CNO", "type": "in vivo, mouse", "conditions": "CNO and DREADD, separate experiments, data not shown", "excerpt": "Because our hypothesis is based on the social reward mediated by social contact in juvenile mice, the mice used were approximately 1-month old. After weaning the mice were maintained in social groups and left undisturbed until the start of the CPP assay. The paradigm was completed in 6 days. On the day before pre-testing the mice were socially isolated in their home cage. On day 1 of the procedure each mouse was placed in the central compartment and allowed to explore the entire apparatus freely for 30 min (pre-test). After the pre-test the initial preference of each mouse for a given side compartment was recorded. […] Conditioning was initiated on day 2 and encompassed four sessions performed on four consecutive days. In the first conditioning session mice were injected i.p. with CNO (5 mg kg) (or saline of an equivalent volume for some control mice) and placed for 1 h (based on the observation that CNO effects peak between 45 and 50 min after administration) in the initially non-preferred (I.N.P.) compartment. On day 3, during the second conditioning session, all mice were injected with saline and confined for 1 hr in the opposite (that is, initially preferred, I.P.) compartment. (The second conditioning session was performed the following day as CNO effects last for 9 hrs.) On day 4 and day 5 the first and second conditioning sessions were repeated, respectively. […]"}, "MRGPRB4+ fibres": {"tested_on": "MRGPRB4+ fibres", "experiment": "Two-photon in vivo calcium imaging (GCaMP3.0) of central afferent fibres through a spinal cord laminectomy, chemical stimuli", "parameters": "species or system mouse", "conditions": "CNO, mice injected only with GCaMP3.0 viruses (no hM3DREADD)", "description": "Mice expressing reporters and/or Cre recombinase targeted to the MrgprB4 locus were generated by homologous recombination in embryonic stem cells, according to standard procedures. Heterozygous neonates from MrgprD-Cre and MrgprB4-Cre mice were injected intraperitoneally with Cre-dependent AAV8 viruses expressing GCaMP3.0 or mGCaMP3.0 or hM3(Gq-coupled) DREADD, and imaged as adults (≧8 weeks old).\nElectrophysiology experiments on ex vivo skin-nerve preparations from adult heterozygous Mrgprb4-EGFPf reporter mice were performed as described in Woodbury, et al. J. Comp. Neurol. 436, 304-323 (2001). For calcium imaging, after a dorsal laminectomy the spinal column was stabilized and filled with imaging solution (see below for details). Imaging was performed using a two-photon laser-scanning microscope (Ultima, Prairie Inc.) using an Olympus 40×0.8 N.A. water immersion objective, at 128×128 pixel resolution with an acquisition rate of 8-12 frames per second. Mechanical stimuli were delivered using a custom-modified No. 5 sable paint brush or serrated forceps, in a manner electronically time-stamped to image acquisition, as may be seen in FIGS. 18A-18C and further discussed below. Stimuli were delivered to each mouse in a series of trials, separated by a few minutes; each trial consisted of one or more stimuli delivered typically at intervals of several seconds. Chemical stimuli were delivered to the spinal cord using a Pipetman pipette and to the periphery using a syringe pump. Calcium responses were analysed using custom software written in Matlab (see below for more details). For calculating ΔF/F [(Fav−F0)/F0], F0 is the average of the first ten frames of the recording period.\nMice 2 months or older were sedated by i.p. injection of a mix of ketamine (100 mg/kg), xylazine (15 mg/kg), acepromazine (2.5 mg/kg in 0.9% NaCl). During surgery, body temperature was maintained at 37° C. with a heating blanket.\nA dorsal laminectomy was performed mostly at spinal level L2-L4 (but occasionally at L1-L3) as described in Johannssen, et al. J. Physiol. (Lond.) 588:3397-3402 (2010), but without removing the dura. The spinal column was stabilized using Narishige STS-A spinal clamps. In addition a head-holding adaptor from Kopf (923-B Mouse Gas Anaesthesia Head Holder) was used that has installed an anaesthesia/gas mask for positioning the mouse head. In this apparatus the gas is applied through a standard hose barb positioned above the nose on the mask. The inlet fills a large gas chamber around the snout, a second hose barb below the mask is provided for vacuuming off excess, expelled gasses. The animals were maintained under continuous anaesthesia for the duration of the imaging experiments with 1-2% isofluorane or with hourly injections of the above ketamine mix. A well was built around the exposed spinal cord using Gelseal (Amersham Biosciences Corp) and Kwik Sil Adhesive (WPI). Warm imaging solution (in mM: 130 NaCl, 3 KCl, 2.5 CaCl2, 0.6 6H2O.MgCl2, 10 HEPES without Na, 1.2 NaHCO3, 10 glucose, pH7.45 with NaOH) (37° C.) was repeatedly applied to prevent drying and maintain tissue integrity, and to allow the use of immersion objectives. During imaging the body temperature of the animals was maintained at 37° C. with a heating blanket and an air-therm heater (WPI) placed inside the microscope area.\nImaging experiments were performed under a two-photon laser-scanning microscope (Ultima, Prairie Instruments Inc.). Live images were acquired at 8-12 frames per second, at depths below the pia ranging from 100 to 250 μm, using an Olympus 40×0.8 N.A. water immersion objective, at 128×128 pixel resolution with a laser tuned to 940 nm wavelength, and emission filters 525/50 nm and 595/50 nm for green and red fluorescence, respectively. Laser power was adjusted to be 20-25 mW at the focal plane (maximally 35 mW), depending on the imaging depth and level of expression of GCaMP3.0. […]"}}, "data": [{"smiles": "C[N+]1([O-])CCN(C2=Nc3cc(Cl)ccc3Nc3ccccc32)CC1", "note": "[CNO, Clozapine-N-oxide]", "values": [{"measurement": "conditioned place aversion (CPA)", "setting": "[1]", "result": "nor (in separate experiments) conditioned place aversion"}, {"measurement": "calcium transients after application to the spinal cord", "setting": "MRGPRB4+ fibres", "result": "no CNO responses"}]}]}
